From ChEMBL document CHEMBL5465560, “Selectivity Literature for EUbOPEN Chemogenomic Library” (2024) come the findings set out here.

The target in test [1] is T1, Serine/threonine-protein kinase Nek1 (Homo sapiens) (UniProt Q96PY6).
T1 sequence (whole entry): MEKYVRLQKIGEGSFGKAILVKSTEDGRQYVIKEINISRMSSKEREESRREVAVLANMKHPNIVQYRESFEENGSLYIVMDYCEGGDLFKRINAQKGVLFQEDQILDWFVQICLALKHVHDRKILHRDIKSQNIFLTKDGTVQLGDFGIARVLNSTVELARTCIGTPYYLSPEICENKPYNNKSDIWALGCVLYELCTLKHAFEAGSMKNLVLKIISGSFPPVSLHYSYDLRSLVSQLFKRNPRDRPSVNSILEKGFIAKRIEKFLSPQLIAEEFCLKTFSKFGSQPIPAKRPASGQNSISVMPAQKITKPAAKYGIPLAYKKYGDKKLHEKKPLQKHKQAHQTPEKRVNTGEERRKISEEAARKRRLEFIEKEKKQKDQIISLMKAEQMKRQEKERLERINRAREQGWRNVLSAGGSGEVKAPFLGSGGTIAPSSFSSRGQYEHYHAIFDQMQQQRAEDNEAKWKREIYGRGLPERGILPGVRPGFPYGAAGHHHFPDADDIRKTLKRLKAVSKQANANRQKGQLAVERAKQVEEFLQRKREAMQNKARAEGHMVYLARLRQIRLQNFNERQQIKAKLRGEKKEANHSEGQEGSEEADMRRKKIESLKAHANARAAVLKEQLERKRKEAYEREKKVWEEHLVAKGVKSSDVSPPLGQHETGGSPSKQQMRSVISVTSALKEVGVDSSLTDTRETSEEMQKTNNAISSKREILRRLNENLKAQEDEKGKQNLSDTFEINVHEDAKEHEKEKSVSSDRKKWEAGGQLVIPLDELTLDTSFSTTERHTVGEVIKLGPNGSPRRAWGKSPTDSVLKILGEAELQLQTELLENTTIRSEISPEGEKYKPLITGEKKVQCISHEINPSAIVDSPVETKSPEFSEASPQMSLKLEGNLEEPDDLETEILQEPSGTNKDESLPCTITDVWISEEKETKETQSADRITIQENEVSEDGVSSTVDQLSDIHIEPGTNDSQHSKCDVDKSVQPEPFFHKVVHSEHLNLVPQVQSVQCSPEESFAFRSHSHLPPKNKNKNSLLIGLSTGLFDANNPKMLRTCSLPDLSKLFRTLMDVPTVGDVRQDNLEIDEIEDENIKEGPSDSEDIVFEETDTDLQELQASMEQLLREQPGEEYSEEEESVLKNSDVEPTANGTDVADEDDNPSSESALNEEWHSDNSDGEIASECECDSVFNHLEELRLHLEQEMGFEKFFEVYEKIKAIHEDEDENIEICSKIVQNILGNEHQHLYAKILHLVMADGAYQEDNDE
Description: Selectivity interaction (Kinase panel (KiNativ target engagement assay in Jurkat cells)) EUB0001635a NEK1. Conditions: at 1 µM. Type of test: cell-based.

Test [2] deals with T2, Serine/threonine-protein kinase Sgk2 (Homo sapiens) (UniProt Q9HBY8).
T2 sequence (whole entry): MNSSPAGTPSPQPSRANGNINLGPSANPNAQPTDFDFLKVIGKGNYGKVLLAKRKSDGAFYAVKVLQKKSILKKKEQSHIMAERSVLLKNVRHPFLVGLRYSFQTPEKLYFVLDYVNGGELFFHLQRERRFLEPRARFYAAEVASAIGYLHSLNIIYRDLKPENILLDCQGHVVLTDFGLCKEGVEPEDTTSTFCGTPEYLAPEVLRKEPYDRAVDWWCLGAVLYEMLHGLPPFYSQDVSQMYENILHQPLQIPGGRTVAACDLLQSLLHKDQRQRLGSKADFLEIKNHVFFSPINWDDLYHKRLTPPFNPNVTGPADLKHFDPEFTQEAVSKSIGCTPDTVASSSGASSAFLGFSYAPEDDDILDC
Description: Selectivity interaction (Ambit KINOMEscan and KiNATiv profiling in Jurkat cells) EUB0000090b SGK2. Type of test: cell-based. To be noted: at 1 µM.

The target of test [3] is Tyrosine-protein kinase HCK (Homo sapiens) (UniProt P08631). Description: Selectivity interaction (KinomeScan (DiscoverX)) EUB0000607a HCK. Conditions: at 10 µM.
The target of test [4] is AP2-associated protein kinase 1 (Homo sapiens, UniProt Q2M2I8). The test is described as follows: Selectivity interaction (KinomeScan (DiscoverX)) EUB0000607a AAK1. Conditions: at 10 µM.
The subject of test [5] is T3, Receptor-type tyrosine-protein kinase FLT3 (Homo sapiens), P36888 [K663Q].
T3 sequence (whole entry): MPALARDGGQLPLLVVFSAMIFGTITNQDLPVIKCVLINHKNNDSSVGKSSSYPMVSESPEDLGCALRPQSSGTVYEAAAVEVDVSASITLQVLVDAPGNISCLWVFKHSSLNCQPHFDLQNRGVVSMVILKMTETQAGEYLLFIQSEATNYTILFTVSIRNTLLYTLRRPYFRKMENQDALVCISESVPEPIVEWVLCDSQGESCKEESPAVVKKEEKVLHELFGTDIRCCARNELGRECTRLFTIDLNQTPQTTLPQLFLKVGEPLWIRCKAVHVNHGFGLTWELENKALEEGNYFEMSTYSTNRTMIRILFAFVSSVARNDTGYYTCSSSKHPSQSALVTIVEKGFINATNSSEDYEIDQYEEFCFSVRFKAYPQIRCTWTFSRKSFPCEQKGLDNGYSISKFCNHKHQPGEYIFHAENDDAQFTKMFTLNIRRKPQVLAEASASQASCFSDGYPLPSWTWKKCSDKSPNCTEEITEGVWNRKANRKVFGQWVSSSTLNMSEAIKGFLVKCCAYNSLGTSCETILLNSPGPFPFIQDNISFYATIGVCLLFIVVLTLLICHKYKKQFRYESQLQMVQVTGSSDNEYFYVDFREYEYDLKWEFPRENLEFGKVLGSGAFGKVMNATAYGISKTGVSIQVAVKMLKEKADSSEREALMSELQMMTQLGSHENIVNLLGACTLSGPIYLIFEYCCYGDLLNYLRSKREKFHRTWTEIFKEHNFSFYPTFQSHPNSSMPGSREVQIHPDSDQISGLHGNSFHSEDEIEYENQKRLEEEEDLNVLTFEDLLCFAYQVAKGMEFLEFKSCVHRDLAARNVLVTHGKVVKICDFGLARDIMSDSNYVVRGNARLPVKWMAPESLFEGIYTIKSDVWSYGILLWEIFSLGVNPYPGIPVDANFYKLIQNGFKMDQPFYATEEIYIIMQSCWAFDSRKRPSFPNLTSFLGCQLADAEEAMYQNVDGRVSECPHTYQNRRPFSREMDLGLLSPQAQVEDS
To be noted: at 10 µM.

Test [6] addresses Serine/threonine-protein kinase pim-1 (Homo sapiens, UniProt P11309).

SMILES strings stand for the structures. pIC50: −log10 of the molar value.

Sequence of Tyrosine-protein kinase HCK (Homo sapiens) (P08631 2-526 limits assumed): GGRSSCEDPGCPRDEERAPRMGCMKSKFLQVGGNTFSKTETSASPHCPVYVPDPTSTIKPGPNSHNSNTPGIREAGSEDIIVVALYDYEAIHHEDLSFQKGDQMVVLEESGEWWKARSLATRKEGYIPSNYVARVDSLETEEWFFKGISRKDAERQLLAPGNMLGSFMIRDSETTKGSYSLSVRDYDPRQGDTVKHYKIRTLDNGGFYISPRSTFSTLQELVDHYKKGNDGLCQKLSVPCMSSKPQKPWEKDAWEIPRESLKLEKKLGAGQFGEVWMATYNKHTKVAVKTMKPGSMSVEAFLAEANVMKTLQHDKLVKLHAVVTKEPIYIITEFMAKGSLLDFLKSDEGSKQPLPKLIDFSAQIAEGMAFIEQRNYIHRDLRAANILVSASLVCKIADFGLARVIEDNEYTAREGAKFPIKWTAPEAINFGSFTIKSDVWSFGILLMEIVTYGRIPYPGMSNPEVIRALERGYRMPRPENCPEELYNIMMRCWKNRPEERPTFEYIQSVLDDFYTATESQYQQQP
Sequence of Serine/threonine-protein kinase pim-1 (P11309 whole entry): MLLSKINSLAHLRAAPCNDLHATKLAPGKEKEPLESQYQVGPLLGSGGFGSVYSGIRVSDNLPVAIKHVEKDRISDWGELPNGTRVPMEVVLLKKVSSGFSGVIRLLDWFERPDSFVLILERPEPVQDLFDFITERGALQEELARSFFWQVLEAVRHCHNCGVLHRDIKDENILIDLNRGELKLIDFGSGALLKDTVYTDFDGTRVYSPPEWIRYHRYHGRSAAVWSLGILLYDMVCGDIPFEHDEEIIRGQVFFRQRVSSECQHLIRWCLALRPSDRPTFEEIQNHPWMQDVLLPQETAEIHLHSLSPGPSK
Sequence of AP2-associated protein kinase 1 (Q2M2I8 whole entry, looked up): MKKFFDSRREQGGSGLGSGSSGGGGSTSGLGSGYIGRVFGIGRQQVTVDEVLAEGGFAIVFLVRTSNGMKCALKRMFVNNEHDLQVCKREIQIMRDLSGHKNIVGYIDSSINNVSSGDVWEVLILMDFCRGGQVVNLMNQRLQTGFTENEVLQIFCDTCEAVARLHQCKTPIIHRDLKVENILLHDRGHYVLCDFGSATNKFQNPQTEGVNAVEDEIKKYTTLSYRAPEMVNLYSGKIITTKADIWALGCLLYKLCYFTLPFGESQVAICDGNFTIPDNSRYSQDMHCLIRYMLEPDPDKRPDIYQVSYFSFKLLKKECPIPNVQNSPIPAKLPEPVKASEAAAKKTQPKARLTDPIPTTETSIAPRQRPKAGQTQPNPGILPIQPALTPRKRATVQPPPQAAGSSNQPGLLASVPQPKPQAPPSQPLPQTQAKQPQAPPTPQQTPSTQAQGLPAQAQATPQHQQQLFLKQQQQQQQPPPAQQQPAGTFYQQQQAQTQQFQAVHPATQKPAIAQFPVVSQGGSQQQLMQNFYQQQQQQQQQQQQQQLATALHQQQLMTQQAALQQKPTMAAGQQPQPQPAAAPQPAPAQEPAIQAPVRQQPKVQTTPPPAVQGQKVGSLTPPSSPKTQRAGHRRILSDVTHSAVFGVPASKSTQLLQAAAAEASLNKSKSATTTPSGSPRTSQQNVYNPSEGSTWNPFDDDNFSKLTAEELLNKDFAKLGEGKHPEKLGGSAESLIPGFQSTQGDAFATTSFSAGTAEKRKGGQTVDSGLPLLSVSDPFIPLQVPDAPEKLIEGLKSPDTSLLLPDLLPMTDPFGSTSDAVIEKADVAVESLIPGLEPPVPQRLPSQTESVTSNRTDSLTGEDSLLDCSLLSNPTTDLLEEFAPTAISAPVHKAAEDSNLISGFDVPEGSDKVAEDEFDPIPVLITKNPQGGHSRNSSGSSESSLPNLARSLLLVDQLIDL

Consider `C=CC(=O)Nc1ccc(C(=O)Nc2[nH]nc3c2CN(C(=O)N[C@H](CN(C)C)c2ccccc2)C3(C)C)cc1`, for which the % of engagement in test [1] was -2.5%.

As to `CN(C)C/C=C/C(=O)Nc1ccc(C(=O)N2CCCC(Nc3ncc(Cl)c(-c4c[nH]c5ccccc45)n3)C2)cc1` (stereo unspecified), the % of control in test [2] was determined as 100%.

Take `CNC(=O)Nc1ccc(-c2nc(N3CC4CCC(C3)O4)c3cnn(C4CCC5(CC4)OCCO5)c3n2)cc1`: the % of control in test [3] and in test [4] was 100% in each case.

As to `Cc1cc([C@@H](C)Nc2ccccc2C(=O)O)c2nc(N3CCOCC3)cc(=O)n2c1` [AZD-6482], the % of control in test [5] amounted to 13%.

In test [6], `CCc1cccc(CC)c1NC(=O)c1nn(C)c2c1CCc1cnc(Nc3ccc(C(=O)NC4CCN(C)CC4)cc3OC(F)(F)F)nc1-2` showed a pIC50 of less than 5.00.
